Like-named read-outs stand apart in the source and are kept apart here.
Assays:
[1] = test system: M. tuberculosis H37Rv-GFP; assay type: cell-based, Mycobacterium tuberculosis; settings: read-out: EC50_H37Rv
[2] = test system: Mycobacterium tuberculosis H37Rv in human macrophages THP-1
Procedure: Mycobacterium tuberculosis In Vitro H37Rv in Human Macrophaqes THP-1 Inhibition Assay (Intracellular Assay)
Procedure was carried out as described in Sorrentino, F. et al. (2016) Antimicrob. Agents Chemother. 60 (1), 640-645 (supplemental material), except that before THP-1 infected cells were seeded in 384 well plates, infected macrophages were filtered in the last step of wash steps with a 40 um cell strainer to remove cell clumps and obtain single cell suspension.
The compounds of the examples were tested essentially in accordance with the above-mentioned assay (without the presence of ethionamide).

[3] = potentiation of ethionamide, ETH 0.1 μg/ml, […], 5 days at 37° C., […]

Row | SMILES | EC50 [1] [nM] | IC50 [2] [nM] | EC50 [1, 3] [nM]
1 | O=C(CCC(F)(F)F)N1CC(c2ccc(OC(F)(F)F)cc2)C1 [Example 14, 4,4,4-trifluoro-1-[3-[4-(trifluoromethoxy)phenyl]azetidin-1-yl]butan-1-one] | < 50 | 250 to 500 | –
2 | O=C(CCC(F)(F)F)N1CC(C2CCCCC2)C1 [Example 6, 1-(3-cyclohexylazetidin-1-yl)-4,4,4-trifluoro-butan-1-one] | – | – | < 50
3 | O=C(CCC(F)(F)F)N1CC(C2CCCC2)C1 [Example 5, 1-(3-cyclopentylazetidin-1-yl)-4,4,4-trifluoro-butan-1-one] | – | – | < 50
4 | O=C(CCC(F)(F)F)N1CC(c2cccc(F)c2)C1 [Example 29, 4,4,4-trifluoro-1-[3-(3-fluorophenyl)azetidin-1-yl]butan-1-one] | < 50 | < 50 | –
5 | O=C(CCC(F)(F)F)N1CC(c2cccnc2)C1 [Example 26, 4,4,4-trifluoro-1-[3-(3-pyridyl)azetidin-1-yl]butan-1-one] | 1000 to 10000 | 1000 to 10000 | –
6 | O=C(CCC(F)(F)F)N1CC(c2ccc(C(F)(F)F)nc2)C1 [Example 21, 4,4,4-trifluoro-1-[3-[6-(trifluoromethyl)-3-pyridyl]azetidin-1-yl]butan-1-one] | 1000 to 10000 | 250 to 500 | –
7 | O=C(CCC(F)(F)F)N1CC(c2cccc(OC(F)(F)F)c2)C1 [Example 15, 4,4,4-trifluoro-1-[3-[3-(trifluoromethoxy)phenyl]azetidin-1-yl]butan-1-one] | < 50 | < 50 | –
8 | O=C(CCC(F)(F)F)N1CC(c2ccc(F)cc2F)C1 [Example 18, 1-[3-(2,4-difluorophenyl)azetidin-1-yl]-4,4,4-trifluoro-butan-1-one] | < 50 | < 50 | –
9 | CC(C)Oc1ccc(C2CN(C(=O)CCC(F)(F)F)C2)cn1 [Example 36, 4,4,4-trifluoro-1-[3-(6-isopropoxy-3-pyridyl)azetidin-1-yl]butan-1-one] | – | – | 50 to 250
10 | O=C(CCC(F)(F)F)N1CC(c2ccc(Cl)nc2)C1 [Example 19] | 250 to 500 | 50 to 250 | –
11 | O=C(CCC(F)(F)F)N1CC(c2cccc(Cl)c2)C1 [Example 17, 1-[3-(3-chlorophenyl)azetidin-1-yl]-4,4,4-trifluoro-butan-1-one] | < 50 | < 50 | –
12 | O=C(CCC(F)(F)F)N1CC(c2ccc(F)cc2C(F)(F)F)C1 [Example 25, 4,4,4-trifluoro-1-[3-[4-fluoro-2-(trifluoromethyl)phenyl]azetidin-1-yl]butan-1-one] | 50 to 250 | 50 to 250 | –
13 | O=C(CCC(F)(F)F)N1CC(c2ccnc(F)c2)C1 [Example 31, 4,4,4-trifluoro-1-[3-(2-fluoro-4-pyridyl)azetidin-1-yl]butan-1-one] | – | – | 500 to 1000
14 | O=C(CCC(F)(F)F)N1CC(c2cncc(Cl)c2)C1 [Example 23, 1-[3-(5-chloro-3-pyridyl)azetidin-1-yl]-4,4,4-trifluoro-butan-1-one] | 250 to 500 | < 50 | –
15 | Cc1cc(F)ccc1C1CN(C(=O)CCC(F)(F)F)C1 [Example 28, 4,4,4-trifluoro-1-[3-(4-fluoro-2-methyl-phenyl)azetidin-1-yl]butan-1-one] | 50 to 250 | 50 to 250 | –
16 | O=C(CCC(F)(F)F)N1CC(c2ncc(F)cc2F)C1 [Example 10, 1-[3-(3,5-difluoro-2-pyridyl)azetidin-1-yl]-4,4,4-trifluoro-butan-1-one] | – | – | < 50
17 | COC1(c2ccc(F)cc2)CN(C(=O)CCC(F)(F)F)C1 [Example 41, 4,4,4-trifluoro-1-(3-(4-fluorophenyl)-3-methoxyazetidin-1-yl)butan-1-one] | < 50 | < 50 | –
18 | O=C(CCC(F)(F)F)N1CC(c2ccc(F)nc2)C1 [Example 33, 4,4,4-trifluoro-1-[3-(6-fluoro-3-pyridyl)azetidin-1-yl]butan-1-one] | – | – | 500 to 1000
19 | O=C(CCC(F)(F)F)N1CC(C2CCC(F)(F)CC2)C1 [Example 40, 1-(3-(4,4-difluorocyclohexyl)azetidin-1-yl)-4,4,4-trifluorobutan-1-one] | – | – | 50 to 250
20 | N#Cc1ccc(C2CN(C(=O)CCC(F)(F)F)C2)cc1 [Example 43, 4-(1-(4,4,4-trifluorobutanoyl)azetidin-3-yl)benzonitrile] | – | – | 1000 to 10000
21 | O=C(CCC(F)(F)F)N1CC(c2cncc(C(F)(F)F)c2)C1 [Example 24, 4,4,4-trifluoro-1-[3-[5-(trifluoromethyl)-3-pyridyl]azetidin-1-yl]butan-1-one] | – | – | 1000 to 10000
22 | O=C(CCC(F)(F)F)N1CC(C2CCOCC2)C1 [Example 38, 4,4,4-trifluoro-1-(3-(tetrahydro-2H-pyran-4-yl)azetidin-1-yl)butan-1-one] | 250 to 500 | 50 to 250 | –

From patent publication US11253499B2, “Compounds” (priority 2017, dated 2022)
